Results published in ChEMBL document CHEMBL4373716, “Curcumin as tyrosine kinase inhibitor in cancer treatment” (Eur J Med Chem, 2019).
Converted amounts (≈) assume the structure as drawn.

What was measured:
[1] = Cmax in human at […], po after 3 months; assay type: ADME, organism-based; parameters: route oral; details: in vivo
[2] = Tmax in human at […], po after 3 months; assay type: ADME, organism-based; details: in vivo
[3] = Aqueous solubility of the compound; assay type: physicochemical

COc1cc(/C=C/C(=O)CC(=O)/C=C/c2ccc(O)c(OC)c2)ccc1O [CURCUMIN]
Cmax [1]: 1770 nM | Tmax [2]: 1 to 2 h | solubility [3]: 1000 to 10000 µg/mL (≈ 2.71 to 27.1 mM)
